Data: a compilation of properties of binary mixtures (doi:10.1016/j.molliq.2017.06.029)

Assay: xn = mol fraction of the nth substance listed
Settings: 100 kPa

OCc1ccco1 + CC(=O)[O-].CC[n+]1ccn(C)c1
speed of sound [m/s]
Settings | 298.15 K | 303.15 K | 308.15 K | 313.15 K | 318.15 K
x2 = 0 | 1447 | 1431 | 1413 | 1394 | 1375
x2 = 0.0572 | 1487 | 1471 | 1452 | 1430 | –
x2 = 0.1058 | 1522 | 1506 | 1487 | 1465 | 1433
x2 = 0.1534 | 1548 | 1532 | – | 1490 | –
x2 = 0.2087 | 1573 | 1557 | 1540 | 1519 | –
x2 = 0.3068 | – | – | 1577 | – | 1534
x2 = 0.408 | 1637 | 1623 | 1609 | 1595 | 1578
x2 = 0.5063 | – | – | 1633 | 1620 | 1606
x2 = 0.5513 | 1670 | 1656 | 1643 | 1629 | –
x2 = 0.6031 | 1680 | 1666 | – | – | 1627
x2 = 0.7053 | 1696 | 1683 | – | 1657 | –
x2 = 0.8045 | 1711 | – | 1685 | 1673 | 1660
x2 = 0.8441 | 1716 | 1704 | 1691 | 1678 | 1666
x2 = 0.902 | 1723 | – | 1699 | 1686 | 1674

CC(=O)[O-].CC[n+]1ccn(C)c1 + OCc1ccco1
x1 = 1
Settings | speed of sound [m/s]
298.15 K | 1735
303.15 K | 1722
308.15 K | 1710
313.15 K | 1698
318.15 K | 1686
